Measured values from US9006257B2, “Bicyclic compounds as mPGES-1 inhibitors” (Glenmark Pharmaceuticals S.A., priority 2012, dated 2015).

Biological target: T1, Recombinant human mPGES-1 (Homo sapiens, UniProt O14684)
T1 construct: made in house; host or cells: CHO cells
T1 sequence (O14684 1-152): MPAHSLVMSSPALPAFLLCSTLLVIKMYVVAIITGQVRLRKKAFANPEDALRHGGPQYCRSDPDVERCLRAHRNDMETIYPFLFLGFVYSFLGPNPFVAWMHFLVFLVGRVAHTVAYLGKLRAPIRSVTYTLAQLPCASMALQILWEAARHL
Experiment: In-vitro mPGES-1 inhibitor screening (inhibition of PGE2 formation from PGH2, HTRF detection)
Assay type: biochemical
Settings: for inhibition at 1 µM: 1 μM test compound, read-out: Percentage inhibition at 1 μM; for inhibition at 1 µM / inhibition at 10 µM: crude microsomal fraction, 15 μM PGH2; for inhibition at 10 µM: 10 μM test compound, read-out: Percentage inhibition at 10 μM; for IC50: class symbol, concentration response curve
How it was run: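 PGE2 formation measured by HTRF after 1 min reaction with 15 μM PGH2, stopped with stannous chloride (11 mg/ml). Beforehand, compound and crude CHO-expressed human mPGES-1 microsomes (40-60 μg/mL) sat 10 min in phosphate/EDTA buffer with 2.5 mM GSH (0.5% DMSO final). IC50 fitted from concentration-response of % inhibition.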

| Structure (SMILES) | inhibition at 1 µM [%] | inhibition at 10 µM [%] | IC50 [nM] |
| --- | --- | --- | --- |
| CC(C)(C)C(=O)NCc1ccc(Cl)c(C(=O)Nc2cccc3c(Oc4cc(C(F)(F)F)ccc4F)nccc23)c1 [Example-41, 2-Chloro-N-(1-(2-fluoro-5-(trifluoromethyl)phenoxy)isoquinolin-5-yl)-5-(pivalamidomethyl)benzamide] | 99 | 97.6 | < 50 |
| Cc1nc(N2CCOCC2)c2cccc(NC(=O)c3c(Cl)ccc(CNC(=O)C(C)(C)C)c3F)c2n1 [Example-58, 6-Chloro-2-fluoro-N-(2-methyl-4-morpholinoquinazolin-8-yl)-3-(pivalamidomethyl)benzamide] | 51.3 | 93.4 | – |
| CC(C)(C)C(=O)NCc1ccc(Cl)c(C(=O)Nc2cccc3c(Nc4cccc(C(F)(F)F)c4)ncnc23)c1 [Example-13, 2-Chloro-5-(pivalamidomethyl)-N-(4-((3-(trifluoromethyl)phenyl)amino)quinazolin-8-yl)benzamide] | 90.2 | 92.2 | < 50 |
| CC1(C)CCC(Oc2nccc3c(NC(=O)c4c(Cl)ccc(CNC(=O)C(C)(C)C)c4F)cccc23)CC1 [Example-35, 6-Chloro-N-(1-((4,4-dimethylcyclohexyl)oxy)isoquinolin-5-yl)-2-fluoro-3-(pivalamidomethyl)benzamide] | 100 | 100 | < 50 |
| Cc1ccc(CNC(=O)C(C)(C)C)c(C)c1C(=O)Nc1cccc2c(Nc3cccc(C(F)(F)F)c3)nccc12 [Example-3, 2,6-Dimethyl-3-(pivalamidomethyl)-N-(1-((3-(trifluoromethyl)phenyl)amino)isoquinolin-5-yl)benzamide] | 96 | 98.1 | < 50 |
| CC(C)(C)C(=O)NCc1ccc(Cl)c(C(=O)Nc2cccc3c(Oc4ccc(C(F)(F)F)cc4)ccnc23)c1F [Example-53, 6-Chloro-2-fluoro-3-(pivalamidomethyl)-N-(4-(4-(trifluoromethyl)phenoxy)quinolin-8-yl)benzamide] | 98.3 | 98.3 | < 50 |
| CC(C)(CO)C(=O)NCc1ccc(Cl)c(C(=O)Nc2cccc3c(Oc4cccc(C(F)(F)F)c4)ncnc23)c1F [Example-66, 6-Chloro-2-fluoro-3-((3-hydroxy-2,2-dimethylpropanamido)methyl)-N-(4-(3-(trifluoromethyl)phenoxy)quinazolin-8-yl)benzamide] | 96.7 | 96.8 | < 50 |
| CC(C)(C)C(=O)NCc1ccc(Cl)c(C(=O)Nc2cccc3c(O[C@H]4CC[C@H](C(F)(F)F)CC4)ncnc23)c1 [Example-39, 2-Chloro-5-(pivalamidomethyl)-N-(4-(((1r,4r)-4-(trifluoromethyl)cyclohexyl)oxy)quinazolin-8-yl)benzamide] | 98 | 99.5 | < 50 |
| CC(C)(C)C(=O)NCc1ccc(Cl)c(C(=O)Nc2cccc3c(Oc4cccc(C(F)(F)F)c4)ccnc23)c1F [Example-18, 6-Chloro-2-fluoro-3-(pivalamidomethyl)-N-(4-(3-(trifluoromethyl)phenoxy)quinolin-8-yl)benzamide] | 100 | 99.9 | < 50 |
| CC(C)Oc1ncnc2c(NC(=O)c3c(Cl)ccc(CNC(=O)C(C)(C)C)c3F)cccc12 [Example-59, 6-Chloro-2-fluoro-N-(4-isopropoxyquinazolin-8-yl)-3-(pivalamidomethyl)benzamide] | 97.5 | 99.4 | < 50 |
| CC(C)(C)C(=O)NCc1ccc(Cl)c(C(=O)Nc2cccc3c(Nc4cccc(C(F)(F)F)c4)ccnc23)c1F [Example-31, 6-Chloro-2-fluoro-3-(pivalamidomethyl)-N-(4-((3-(trifluoromethyl)phenyl)amino)quinolin-8-yl)benzamide] | 98.7 | 98.7 | < 50 |
| CC(C)C(=O)NCc1ccc(Cl)c(C(=O)Nc2cccc3c(NC(C)(C)C)ncnc23)c1F [Example-70, N-(4-(tert-Butylamino)quinazolin-8-yl)-6-chloro-2-fluoro-3-(isobutyramidomethyl)benzamide] | 100 | 98.8 | < 50 |
| CC(C)C(=O)NCc1cnc(C(F)F)c(C(=O)Nc2cccc3c(Oc4cccc(C(F)(F)F)c4)ncnc23)c1 [Example-74, 2-(Difluoromethyl)-5-(isobutyramidomethyl)-N-(4-(3-(trifluoromethyl)phenoxy)quinazolin-8-yl)nicotinamide] | 100 | 100 | < 50 |
